Laboratory results reported in US20090012085A1, “DOSAGE FORMS AND METHODS OF TREATMENT USING A TYROSINE KINASE INHIBITOR” (priority 2005, published 2009).
Like-named read-outs stand apart in the source and are kept apart here.

Test: Phase I dose-escalating study, plasma pharmacokinetics in patients with solid tumor
Assay type: in vivo, human
Details: human, plasma; for concentration at 3 h: nominal time 3 h; for concentration at 6 h: nominal time 6 h; for concentration at 8 h: nominal time 8 h; for concentration at 10 h: nominal time 10 h; for concentration at 4 h: nominal time 4 h; for concentration at 0 h: nominal time 0 h; for concentration at 1 h: nominal time 1 h; for concentration at 2 h: nominal time 2 h; for concentration at 20 h: nominal time 20 h; for concentration at 48 h: nominal time 48 h; for concentration at 72 h: nominal time 72 h; for concentration at 96 h: nominal time 96 h; for concentration at 144 h: nominal time 144 h; for AUC(0-t): read-out: AUC(0-24), mean (% CV); for Cmax: read-out: Cmax, mean (% CV); for Tmax: read-out: tmax, mean (% CV); for half-life: read-out: t½, mean (% CV) (converted)
Procedure: Cmax values, or maximum total plasma concentrations, of a compound of formula 1 can be measured according to techniques well known to those skilled in the art. For example, after a compound of formula 1 has been administered to a mammal, blood samples can be taken at fixed time points over a period of time (e.g. 24 hours) and the serum or plasma concentration of compound of formula 1 can be measured using standard analytical techniques known in the art. In vivo determinations Cmax can then be made by plotting the serum or plasma concentration of compound of formula 1 along the ordinate (y-axis) against time along the abscissa (x-axis).
The maleate salt of compound 1 was administered to human patients with solid tumor malignancies not amenable to conventional therapies in a Phase I dose-escalating multicenter study. The types of tumor malignancies included colorectal carcinoma, renal cell carcinoma, esophageal carcinoma, thymus carcinoma, mastocytosis, lung cancer and multiple endocrine neoplasia type II. Patients were treated in cohorts of 6 with escalating QD (once per day) doses of the maleate salt of compound 1 under fasting conditions. Each study cycle of 5 weeks consisted of 4 weeks of treatment followed by 1 week of rest (4/1 schedule), or continuous dosing without any rest period.
Full pharmacokinetic profiles were collected on Cycle 1 Day 1 (C1D1), Cycle 1 Day 28 (C1D28), and Cycle 2 Day 28 (C2D28). Preliminary pharmacokinetic parameters for the first 44 patients, i.e. the first 7 dosing groups, were estimated using nominal collection times and quality-controlled, non-quality assured bioanalytical data. The dosage amounts in Table 1A and Table 1B are free base equivalent amounts.

[1] = 150 mg QD, 150 mg QD 4/1 (n = 5), read-out: Mean plasma concentration following the last dose on cycle 1 day 28
[2] = 150 mg QD, 150 mg QD Continuous (n = 6), read-out: Mean plasma concentration following the last dose on cycle 1 day 28
[3] = 150 mg, 150 mg QD 4/1 (n = 5), read-out: Mean plasma concentration following the last dose on cycle 1 day 28
[4] = 150 mg, 150 mg QD (4/1), C1D1 (n = 7)
[5] = 150 mg, 150 mg QD (4/1), C1D28 (n = 5)
[6] = 150 mg, 150 mg QD (4/1), C2D28 (n = 4)
[7] = 150 mg, 150 mg QD Continuous (n = 6), read-out: Mean plasma concentration following the last dose on cycle 1 day 28
[8] = 200 mg QD, 200 mg QD 4/1 (n = 5), read-out: Mean plasma concentration following the last dose on cycle 1 day 28
[9] = 200 mg, 200 mg QD 4/1 (n = 5), read-out: Mean plasma concentration following the last dose on cycle 1 day 28
[10] = 200 mg, 200 mg QD (4/1), C1D1 (n = 6)

concentration at 3 h [1]: 0.268 µg/mL | concentration at 6 h [1]: 0.161 µg/mL | concentration at 8 h [1]: 0.142 µg/mL | concentration at 10 h [1]: 0.132 µg/mL | concentration at 3 h [2]: 0.407 µg/mL | concentration at 4 h [2]: 0.519 µg/mL | concentration at 6 h [2]: 0.471 µg/mL | concentration at 8 h [2]: 0.405 µg/mL | concentration at 10 h [2]: 0.345 µg/mL | concentration at 0 h [3]: 0.0998 µg/mL | concentration at 1 h [3]: 0.184 µg/mL | concentration at 2 h [3]: 0.252 µg/mL | concentration at 4 h [3]: 0.231 µg/mL | concentration at 20 h [3]: 0.0429 µg/mL | concentration at 24 h (150 mg, 150 mg QD 4/1 (n = 5), nominal time 24 h, read-out: Mean plasma concentration following the last dose on cycle 1 day 28): 0.0948 µg/mL | concentration at 48 h [3]: 0.0312 µg/mL | concentration at 72 h [3]: 0.00908 µg/mL | concentration at 96 h [3]: 0.00417 µg/mL | concentration at 144 h [3]: 0.00152 µg/mL | AUC(0-t) [4]: 3.37 µg·h/mL | concentration at 24 h (150 mg, 150 mg QD (4/1), C1D1 (n = 7), read-out: C(trough, 24 h), mean (% CV)): 0.0817 µg/mL | Cmax [4]: 0.421 µg/mL | Tmax [4]: 1.6 h | half-life [4]: 13.6 h | AUC(0-t) [5]: 2.96 µg·h/mL | concentration at 24 h (150 mg, 150 mg QD (4/1), C1D28 (n = 5), read-out: C(trough, 24 h), mean (% CV)): 0.0758 µg/mL | Cmax [5]: 0.299 µg/mL | Tmax [5]: 1.8 h | half-life [5]: 19.3 h | AUC(0-t) [6]: 3.09 µg·h/mL | concentration at 24 h (150 mg, 150 mg QD (4/1), C2D28 (n = 4), read-out: C(trough, 24 h), mean (% CV)): 0.0546 µg/mL | Cmax [6]: 0.269 µg/mL | Tmax [6]: 3 h | half-life [6]: 13.2 h | concentration at 0 h [7]: 0.124 µg/mL | concentration at 1 h [7]: 0.244 µg/mL | concentration at 2 h [7]: 0.453 µg/mL | concentration at 20 h [7]: 0.104 µg/mL | concentration at 24 h (150 mg, 150 mg QD Continuous (n = 6), nominal time 24 h, read-out: Mean plasma concentration following the last dose on cycle 1 day 28): 0.271 µg/mL | concentration at 3 h [8]: 0.396 µg/mL | concentration at 4 h [8]: 0.441 µg/mL | concentration at 6 h [8]: 0.463 µg/mL | concentration at 8 h [8]: 0.349 µg/mL | concentration at 10 h [8]: 0.361 µg/mL | concentration at 0 h [9]: 0.353 µg/mL | concentration at 1 h [9]: 0.408 µg/mL | concentration at 2 h [9]: 0.408 µg/mL | concentration at 20 h [9]: 0.189 µg/mL | concentration at 24 h (200 mg, 200 mg QD 4/1 (n = 5), nominal time 24 h, read-out: Mean plasma concentration following the last dose on cycle 1 day 28): 0.259 µg/mL | concentration at 48 h [9]: 0.0876 µg/mL | concentration at 72 h [9]: 0.0314 µg/mL | concentration at 96 h [9]: 0.013 µg/mL | concentration at 144 h [9]: 0.00477 µg/mL | AUC(0-t) [10]: 3.44 µg·h/mL | concentration at 24 h (200 mg, 200 mg QD (4/1), C1D1 (n = 6), read-out: C(trough, 24 h), mean (% CV)): 0.147 µg/mL | Cmax [10]: 0.263 µg/mL | Tmax [10]: 8.7 h
Structure (SMILES): Cc1[nH]c(/C=C2\C(=O)Nc3ccc(F)cc32)c(C)c1C(=O)NC[C@H](O)CN1CCOCC1 [compound 1, 5-[(Z)-(5-fluoro-2-oxo-1,2-dihydro-3H-indol-3-ylidene)methyl]-N-[(2S)-2-hydroxy-3-morpholin-4-ylpropyl]-2,4-dimethyl-1H-pyrrole-3-carboxamide]
